Reference: patent US9352050B2, “Processes for preparing peptide conjugates and linkers” (PFIZER INC., priority 2011, dated 2016)

Key:
Format in all cases: physicochemical
[1] = Storage stability of activated esters of acid 6 at room temperature; conditions: solid, in contact with air
From the text: This cyclic byproduct became the major constituent of the isolated solid after only a few days at RT. Since this side-reaction was envisioned to become even more problematic on scale due to the longer timelines for processing and isolation, a search for an alternative activating group for acid 6 was undertaken.

[2] = Solubility and dissolution of peptide-linker conjugate and peptide in solvents and buffers
From the text: The process for the formation of the drug substance 5 was originally described in U.S. Pat. No. 8,288,349 whose contents are hereby incorporated. The original process involved use of propylene glycol as the cosolvent in the conjugation process between peptide-linker 3 and the antibody h38C2. […] The more amorphous solid form is usually more soluble in different solvents and buffer solutions. […] During preparation of bioconjugate 5, it is desirable to have a conjugation mixture as a homogeneous solution at the beginning of the reaction in order to afford consistent reaction kinetics and more robust manufacturing process.
In the original process, propylene glycol was used as a cosolvent primarily to assist in the dispersion of the hydrophobic peptide-linker 3b in the aqueous histidine buffer solution at pH 6.5.

[3] = Degradation of peptide 3b in the conjugation mixture; conditions: higher temperatures (30-35° C.) and higher pH (about pH7.5)
Experimental: In order to investigate the impact of different conjugation reaction variables on the reaction rate, product quality and yield, a set of experiments were executed using design of experiments (DOE) approach. Three parameters were chosen for evaluation: pH of the conjugation mixture, temperature of the conjugation and the ratio of peptide to starting antibody. Other parameters such as composition of the buffer solution (20 mM histidine buffer), antibody concentration (16.7 mg/mL) and concentration of DMSO in solution (7%) were kept constant. The centre point for each parameter was pH6.5, 20° C. and a peptide:antibody ratio of 2.4:1. The low levels tested were pH5.5, 5° C. and a ratio of 1.8, and the high levels were pH7.5, 35° C. and a ratio of 3.
Several experiments whose variable values were at the center-point of all the parameter ranges were selected to provide information on possible non-linear effects. The protocol for these experiments was briefly as follows: Peptide 3b (25 mg) was placed in a 20 mL vial equipped with a magnetic stir bar. The solid was dissolved in DMSO (2.1 mL). Histidine buffer (20 mM, pH 6.5, 2.1 mL) was added to the solution. […] The reaction was monitored for completion by SEC and HIC chromatography methods. […] The in-situ yield of 5 and time of reaction completion (hours) were evaluated by HIC and SEC chromatographic methods. […]

Q: For `O=C(COCC(=O)ON1C(=O)CCC1=O)Nc1ccc(CCC(=O)N2CCC2=O)cc1` [compound 8], which “Storage stability” value [1] is on record?
A: increasing amounts of the second component were noticed after the solid had been set aside for only a few hours

Q: Which “solubility” value ([2]; MeCN or MeOH) does the source give for `CC(=O)NCCCC[C@H](N)C(=O)O` [compound 2] here?
A: low solubility

Q: Which results are given for `CSCC[C@H](NC(=O)[C@H](Cc1ccccc1)NC(=O)[C@H](CCC(N)=O)NC(=O)[C@H](CC(=O)O)NC(=O)[C@H](Cc1ccc(O)cc1)NC(=O)[C@H](CC(C)C)NC(=O)[C@@H](NC(=O)[C@H](CCCCNC(=O)COCC(=O)Nc1ccc(CCC(=O)N2CCC2=O)cc1)NC(=O)[C@H](CC(=O)O)NC(=O)[C@H](CCCCNC(C)=O)NC(=O)[C@H](CCC(=O)O)NC(=O)[C@H](CC(=O)O)NC(=O)[C@H](CC(C)C)NC(=O)[C@@H]1CCCN1C(=O)[C@H](CCC(N)=O)NC(=O)[C@H](Cc1ccc(O)cc1)NC(=O)[C@H](CCCCNC(C)=O)NC(=O)[C@H](CCC(N)=O)NC(C)=O)C(C)O)C(=O)N[C@@H](CC(C)C)C(=O)N[C@@H](CCC(N)=O)C(=O)N[C@@H](CCC(N)=O)C(=O)NCC(N)=O` (stereo partly drawn) [3b]?
A: Degradation rate [3]: occurs at a faster rate; Solubility in propylene glycol [2]: very low solubility; Solubility in solvents other than DMSO [2]: limited solubility; solubility ([2]; Solubility in DMSO): ≥ 100 mg/mL
